US9073873B2, “2-heterocyclylaminoalkyl-(p-quinone) derivatives for treatment of oxidative stress diseases” (Edison Pharmaceuticals, Inc., priority 2008, dated 2015)

What was measured:
Format in all cases: cell-based
[1] = test system: human dermal fibroblasts from CoQ10 deficient patients; assay: Rescue of fibroblasts from CoQ10 deficient patients from oxidative stress; conditions: Fibroblast, cells from CoQ10 deficient patients harboring a CoQ2 mutation, read-out: protection against CoQ10 deficiency, EC50
Protocol: (§1) An initial screen was performed to identify compounds effective for the amelioration of redox disorders. Test samples, 4 reference compounds (idebenone, decylubiquinone, Trolox and α-tocopherol acetate), and solvent controls were tested for their ability to rescue FRDA fibroblasts stressed by addition of L-buthionine-(S,R)-sulfoximine (BSO), as described in Jauslin et al., Hum. Mol. Genet. 11(24):3055 (2002), Jauslin et al., FASEB J. 17:1972-4 (2003), and International Patent Application WO 2004/003565. […] This specific BSO-mediated cell death can be prevented by administration of antioxidants or molecules involved in the antioxidant pathway, such as α-tocopherol, selenium, or small molecule glutathione peroxidase mimetics. However, antioxidants differ in their potency, i.e. the concentration at which they are able to rescue BSO-stressed FRDA fibroblasts.
(§2) Test samples were screened according to the following protocol: A culture with FRDA fibroblasts was started from a 1 ml vial with approximately 500,000 cells stored in liquid nitrogen. Cells were propagated in 10 cm cell culture dishes by splitting every third day in a ratio of 1:3 until nine plates were available. Once confluent, fibroblasts were harvested. For 54 micro titer plates (96 well-MTP) a total of 14.3 million cells (passage eight) were re-suspended in 480 ml medium, corresponding to 100 μl medium with 3,000 cells/well. The remaining cells were distributed in 10 cm cell culture plates (500,000 cells/plate) for propagation. The plates were incubated overnight at 37° C. in a atmosphere with 95% humidity and 5% CO2 to allow attachment of the cells to the culture plate.
(§3) MTP medium (243 μl) was added to a well of the microtiter plate. The test compounds were unfrozen, and 7.5 μl of a 5 mM stock solution was dissolved in the well containing 243 μl medium, resulting in a 150 μM master solution. Serial dilutions from the master solution were made. The period between the single dilution steps was kept as short as possible (generally less than 1 second).
(§4) Plates were kept overnight in the cell culture incubator. The next day, 10 μl of a 10 mM BSO solution were added to the wells, resulting in a 1 mM final BSO concentration. Forty-eight hours later, three plates were examined under a phase-contrast microscope to verify that the cells in the 0% control (wells E1-H1) were clearly dead. The medium from all plates was discarded, and the remaining liquid was removed by gently tapping the plate inversed onto a paper towel.
(§5) 100 μl of PBS containing 1.2 μM Calcein AM were then added to each well. The plates were incubated for 50-70 minutes at room temperature. After that time the PBS was discarded, the plate gently tapped on a paper towel and fluorescence (excitation/emission wavelengths of 485 nm and 525 nm, respectively) was read on a Gemini fluorescence reader. Data was imported into Microsoft Excel (EXCEL is a registered trademark of Microsoft Corporation for a spreadsheet program) and used to calculate the EC50 concentration for each compound.
Compounds of the invention were tested using a screen similar to the one described in Example A, but substituting FRDA cells with cells obtained from CoQ10 deficient patients harboring a CoQ2 mutation. The compounds were tested for their ability to rescue human dermal fibroblasts from CoQ10 deficient patients from oxidative stress.

[2] = test system: human dermal fibroblasts from Parkinson's Disease patients; assay: Rescue of fibroblasts from Parkinson's Disease patients from oxidative stress; conditions: Fibroblast, PD cells AG20439, read-out: protection against PD, EC50
Protocol: as §1, §2, §3, §4, §5
(§6) Compounds of the invention were tested using a screen similar to the one described in Example A described in Example A, but substituting FRDA cells with Parkinson's Disease (PD) cells obtained from the Coriell Cell Repositories (Camden, N.J.; repository number AG20439). The compounds were tested for their ability to rescue human dermal fibroblasts from Parkinson's Disease patients from oxidative stress.

[3] = test system: human dermal fibroblasts from LHON patients; assay: Rescue of fibroblasts from LHON patients from oxidative stress; conditions: Fibroblast, LHON cells GM03858, read-out: protection against LHON, EC50
Protocol: as §1, §2, §3, §4, §5
as §6, with “Example” for “Example A described in Example”, “Leber's Hereditary Optic Neuropathy (LHON)” for “Parkinson's Disease (PD)”, “GM03858).” for “AG20439).”, “LHON” for “Parkinson's Disease”

[4] = test system: Human dermal fibroblasts from Friedreich's Ataxia patients; assay: Rescue of BSO-stressed FRDA fibroblasts (Calcein AM viability); conditions: FRDA fibroblasts GM04078, BSO-stressed, read-out: protection against FRDA, EC50
Protocol: as §1
MEM (a medium enriched in amino acids and vitamins, catalog no. 1-31F24-I) and Medium 199 (M199, catalog no. 1-21F22-I) with Earle's Balanced Salts, without phenol red, were purchased from Bioconcept. Fetal Calf Serum was obtained from PAA Laboratories. Basic fibroblast growth factor and epidermal growth factor were purchased from PeproTech. Penicillin-streptomycin-glutamine mix, L-buthionine (S,R)-sulfoximine, (+)-α-tocopherol acetate, decylubiquinone, and insulin from bovine pancreas were purchased from Sigma. Trolox (6-Hydroxy-2,5,7,8-tetramethylchromane-2-carboxylic acid) was obtained from Fluka. Idebenone was obtained from Chemo Iberica. Calcein AM was purchased from Molecular Probes. Cell culture medium was made by combining 125 ml M199 EBS, 50 ml Fetal Calf Serum, 100 U/ml penicillin, 100 μg/ml streptomycin, 2 mM glutamine, 10 μg/ml insulin, 10 ng/ml EGF, and 10 ng/ml bFGF; MEM EBS was added to make the volume up to 500 ml. A 10 mM BSO solution was prepared by dissolving 444 mg BSO in 200 ml of medium (Invitrogen, Carlsbad, Ca.) with subsequent filter-sterilization. During the course of the experiments, this solution was stored at +4° C. The cells were obtained from the Coriell Cell Repositories (Camden, N.J.; repository number GM04078) and grown in 10 cm tissue culture plates. Every third day, they were split at a 1:3 ratio.
The test samples were supplied in 1.5 ml glass vials. The compounds were diluted with DMSO, ethanol or PBS to result in a 5 mM stock solution. Once dissolved, they were stored at −20° C. Reference antioxidants (idebenone, decylubiquinone, α-tocopherol acetate and Trolox) were dissolved in DMSO.
as §2, §3
Plates were kept overnight in the cell culture incubator. The next day, 10 μl of a 10 mM BSO solution were added to the wells, resulting in a 1 mM final BSO concentration. […]

[5] = test system: human dermal fibroblasts from Huntington's patients; assay: Rescue of fibroblasts from Huntington's patients from oxidative stress; conditions: Fibroblast, Huntington's cells GM 04281, read-out: protection against Huntington's, EC50
Protocol: as §1, §2, §3, §4, §5
as §6, with “Example” for “Example A described in Example”, “Huntington's” for “Parkinson's Disease (PD)”, “GM 04281).” for “AG20439).”, “Huntington's” for “Parkinson's Disease”

Measured: EC50

CC1=C(C)C(=O)C(CCNc2ncccc2C(F)(F)F)=C(C)C1=O [2,3,5-Trimethyl-6-(2-(3-(trifluoromethyl)pyridin-2-ylamino)ethyl)cyclohexa-2,5-diene-1,4-dione]
< 100 nM: [1] | [2] | [3] | [4] | [5]

CC1=C(C)C(=O)C(CCNc2cc(C(F)(F)F)ccn2)=C(C)C1=O [2,3,5-Trimethyl-6-(2-(4-(trifluoromethyl)pyridin-2-ylamino)ethyl)cyclohexa-2,5-diene-1,4-dione]
< 100 nM: [1] | [2] | [3] | [4] | [5]

CC1=C(C)C(=O)C(CCNc2nccc(C(F)(F)F)n2)=C(C)C1=O [2,3,5-Trimethyl-6-(2-(4-(trifluoromethyl)pyrimidin-2-ylamino)ethyl)cyclohexa-2,5-diene-1,4-dione]
< 100 nM: [1] | [2] | [3] | [4] | [5]

CC1=C(C)C(=O)C(CCNc2ccc(C(F)(F)F)cn2)=C(C)C1=O [2,3,5-Trimethyl-6-(2-(5-(trifluoromethyl)pyridin-2-ylamino)ethyl)cyclohexa-2,5-diene-1,4-dione]
< 100 nM: [1] | [2] | [3] | [4] | [5]

CC1=C(C)C(=O)C(CCNc2cccc(C(F)(F)F)n2)=C(C)C1=O [2,3,5-Trimethyl-6-(2-(6-(trifluoromethyl)pyridin-2-ylamino)ethyl)cyclohexa-2,5-diene-1,4-dione]
< 100 nM: [1] | [2] | [3] | [4] | [5]

CC1=C(C)C(=O)C(CCNc2ccccn2)=C(C)C1=O [2,3,5-Trimethyl-6-(2-(pyridin-2-ylamino)ethyl)cyclohexa-2,5-diene-1,4-dione]
< 100 nM: [1] | [2] | [3] | [4] | [5]

CC1=C(C)C(=O)C(CCNc2ncccn2)=C(C)C1=O [2,3,5-Trimethyl-6-(2-(pyrimidin-2-ylamino)ethyl)cyclohexa-2,5-diene-1,4-dione]
< 100 nM: [1] | [2] | [3] | [4] | [5]

CC1=C(C)C(=O)C(CCNc2nccc(F)n2)=C(C)C1=O [2-(2-(4-Fluoropyrimidin-2-ylamino)ethyl)-3,5,6-trimethylcyclohexa-2,5-diene-1,4-dione]
< 100 nM: [1] | [2] | [3] | [4] | [5]

CC1=C(C)C(=O)C(CCNc2ncc(F)cn2)=C(C)C1=O [2-(2-(5-Fluoropyrimidin-2-ylamino)ethyl)-3,5,6-trimethylcyclohexa-2,5-diene-1,4-dione]
< 100 nM: [1] | [2] | [3] | [4] | [5]
